Laboratory results taken from US20230096051A1, “CGRP ANTIGONISTS USEFUL AS TRACER COMPOUNDS FOR POSITRON EMISSION TOMOGRAPHY” (Eli Lilly and Company, priority 2019, published 2023).

Experiments:
[1] = molecular target: T1, ABCB1, human P-glycoprotein (Pgp) (Homo sapiens, UniProt P08183); assay: In vitro determination of efflux by Pgp, bi-directional transport across MDCKII cells; type: in vitro ADME; conditions: MDCKII-ABCB1, 5 μM substrate, 60 min, B-A/A-B Papp ratios with and without inhibitor
T1 construct: host or cells: MDCKII cells
Description: Cell Culture: MDCKII cells stably expressing human wild-type ABCB1 (Pgp) are obtained from the Netherlands Cancer Institute (Amsterdam, The Netherlands). MDCK cells are maintained as described previously (Desai et al., Mol Pharm 10:1249-1261, 2013).
Bi-directional transport across MDCK cells: The assay is essentially conducted as described previously (Desai et al., Mol Pharm 10:1249-1261, 2013). Transport is measured in both directions across uninhibited and inhibited cell monolayers using a substrate concentration of 5 μM diluted from a 10 mM DMSO stock solution (final DMSO concentration of 0.05%) and a single 60-min time interval. […] The apparent permeability coefficients (Papp) are estimated as the slope of the mass transported per 60 min relative to the total recovered mass. The basal-to-apical (B-A)/apical-to-basal (A-B) Papp ratios are calculated in the absence or presence of inhibitor in each cell line for net efflux ratio (NER).

[2] = molecular target: T2, human CGRP receptor heterodimer (Homo sapiens, UniProt O60894+Q16602); assay: Competition filtration binding with [3H]BIBN-4096 on SK-N-MC cell membranes; conditions: [3H]BIBN-4096 130 pM, mean
T2 construct: Human SK-N-MC neuroblastoma cells, endogenously expressing the human CGRP receptor, are expanded in culture flasks; host or cells: P2 membranes of SK-N-MC neuroblastoma cells
From the text: The equilibrium affinity constant (Ki) at the human CGRP receptor heterodimer may be determined using standard competition filtration binding methods with membranes prepared from cultured SK-N-MC neuroblastoma cells (ATCC) and a high-affinity CGRP receptor antagonist.
Membrane Production: Human SK-N-MC neuroblastoma cells, endogenously expressing the human CGRP receptor, are expanded in culture flasks (Corning, T225) using growth media containing Eagles's Minimum Essential Media (HyClone™) supplemented with 10% heat-inactivated fetal bovine serum (GIBCO®). When cell monolayers achieve a level of 70-80% confluence, they are dissociated from the culture flasks using TrypLE™ cell dissociation media (ThermoFisher Scientific). Dissociated cells are pelleted by centrifugation at 300×g to remove the growth and dissociation media. Centrifuged cell pellets are flash frozen in liquid nitrogen (−320° F.) for 30 sec and stored frozen at −80° C. until the subsequent membrane preparation.
A membrane preparation P2 pellet (second pellet from centrifugation procedure) is generated from harvested SK-N-MC frozen cultured cell pellets by diluting these cells on ice into 20 mM Tris-HCl buffer, pH 7.4, containing protease inhibitors (Pierce). Suspended cells are Dounce homogenized on ice and centrifuged at low speed (1000×g for 20 min at 4° C.) to remove cellular organelles and debris (P1 pellet). The supernatant, containing the soluble membrane fraction, is collected and subjected to a high speed centrifugation step (25,000×g for 1 hr at 4° C.) to isolate the resultant P2 membrane pellet. […] Protein concentration is determined using the Bradford Protein Assay (ThermoFisher Scientific). […]
Data Analysis: Bound radioactivity may be counted using a MicroBeta® Trilux Scintillation Counter (PerkinElmer®). […] Relative IC50 values are calculated using a four-parameter logistic curve fitting program (GraphPad Prism v8.3.0). Equilibrium dissociation binding constants (Ki) for the compounds are calculated from the following equation: […]

For Cc1cc(N2CCC2)cc(OCc2ccc([C@@H](C)[C@@]3(C)C(=O)NC[C@@H]3CF)cc2)n1 [Example 1, (3R,4R)-3-[(1R)-1-[4-[[4-(azetidin-1-yl)-6-methyl-2-pyridyl]oxymethyl]phenyl]ethyl]-4-(fluoromethyl)-3-methyl-pyrrolidin-2-one], the “net efflux ratio (NER) for efflux by Pgp” value [1] was 1.9 and the Ki [2] was 0.35 nM.
Cc1cc(N2CC(F)C2)cc(OCc2ccc([C@@H](C)[C@@]3(C)C(=O)NC[C@@H]3C)cc2)n1 [Example 2, (3R,4R)-3-[(1R)-1-[4-[[4-(3-fluoroazetidin-1-yl)-6-methyl-2-pyridyl]oxymethyl]phenyl]ethyl]-3,4-dimethyl-pyrrolidin-2-one] was tested, and the “net efflux ratio (NER) for efflux by Pgp” value [1] was 1.6 and the Ki [2] was 0.98 nM.
Work on Cc1cc(N2CC(F)C2)cc(OCc2ccc([C@@H](C)[C@@]3(C)C(=O)NC[C@@H]3CF)cc2)n1 [Example 3, (3R,4R)-3-[(1R)-1-[4-[[4-(3-fluoroazetidin-1-yl)-6-methyl-2-pyridyl]oxymethyl]phenyl]ethyl]-4-(fluoromethyl)-3-methyl-pyrrolidin-2-one] yielded a Ki [2] of 0.93 nM.
